Each structure is given as a SMILES string.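 The compound was tested at five concentrations on cells cultured in 96-well plates, with a 48-hour exposure period. TGI: total growth inhibition.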 Where a SMILES comes first, the peptide text is derived from it. The star is where a group is joined. Boc = CC(C)(C)OC(=O)*

The subject of one assay is SW-620 colon. As to the kind of experiment: DTP human tumour cell line panel, 48 h.
In the case of `C[C@@]12[C@H]3CC[C@@H]1[C@H](O)C(=O)N2CC3`, the concentration for total growth inhibition (TGI) is above 100 µM.
The compound `COC(=O)CNC(=O)C(Cc1ccccc1)NC(=O)C(CCSC)NC(=O)C(Cc1ccc(O)cc1)NC(=O)OC(C)(C)C` (stereo unspecified) (Boc-YMFG-OMe; configuration not given here) came in with a TGI above 100 µM.
Consider `Cc1ccc([C@@H]2[C@@H](C(=O)c3ccccn3)[C@H](c3ccc(C)cc3)C[C@](O)(c3ccccn3)[C@H]2C(=O)c2ccccn2)cc1`, for which the TGI was above 100 µM.
The same measure, in the same setting: the value for `COc1cc(/C=C2/C(=O)N(C(=O)c3ccccc3O)N=C2C)cc(OC)c1OC` was above 100 µM; that for `CCCc1cc(=O)c2c(C)c3[nH]c4ccc(Cl)cc4c3c(C)c2[nH]1` was 4.29 µM.
Same read-out and setting: the result for `CC(CN1c2ccccc2Sc2ccccc21)N(C)C` (stereo unspecified) reads 45 µM; that for `Cc1nnc(Nc2ccccc2)o1`, above 100 µM.

For another assay, the system named is T-47D breast. As to the kind of experiment: DTP human tumour cell line panel, 48 h.
`COc1ccc(C2CC(c3c(O)ccc4ccccc34)=NN2c2ccc([N+](=O)[O-])cc2[N+](=O)[O-])cc1OC` (stereo unspecified) registered a TGI of 79.7 µM.
On the same count and under the same terms, the value for `CN1C(=O)C2C(=O)N(Cc3ccccc3)CC(=O)N2c2cccnc21` (stereo unspecified) was above 100 µM; that for `O=C(O)CSc1nnc(COc2ccc(Cl)cc2)n1-c1ccccc1` was above 100 µM.
`CN(C)CCCOc1nc2c(c(=O)n(C)c(=O)n2C)n1C` (tested in a mixture with another compound) displayed a TGI above 100 µM.
Turning to `C[N+]1=C2[B-](C(C)(C)C)=[N+](C(C)(C)C)[B-]2(C(C)(C)C)[N+](C)=C2[B-](C(C)(C)C)=[N+](C(C)(C)C)[B-]21C(C)(C)C` (stereo unspecified), the TGI was above 100 µM.
Turning to `Brc1ccc(CCNCCN2CCCCC2)cc1`, the TGI worked out at 32 µM.
Compound `Cc1ccc(C(=O)Nc2ccc(CP(=O)(O)O)cc2CP(=O)(O)O)cc1NC(=O)c1cccc(N)c1` had a TGI above 100 µM.
Consider `OC1C2[C@@H](O)CCCN2C[C@@H](O)[C@H]1O` (stereo partly specified), for which the TGI is above 100 µM.
In turn, `CC[C@]1(Cc2ccc(OC)c(OC)c2)CN(S(=O)(=O)c2ccc(C)cc2)C[C@@H]1OC(C)=O` returned a TGI above 100 µM.
Regarding `Cc1c(F)c(N)c2c(=O)cc(-c3ccc(NC(=O)CN(C)C)c(F)c3)oc2c1F`, the TGI was above 100 µM.
Compound `O=C(CC(=O)n1nc(-c2ccccc2)c(N=Nc2ccccc2C(=O)O)c1-c1ccccc1)Nc1ccc(Cl)cc1` yielded a TGI above 100 µM.
Take `C=C(C)C12CC(COC(=O)c3ccccc3)C34OC5(OC1C3C1OC1(CO)C(O)C1(O)C(OC(=O)c3ccccc3)C(C)C(C(C)CCCCCCC5O)C14)O2` (stereo unspecified): the TGI is above 100 µM.
Still for that read-out and setting: the result for `C[C@@]12[C@H]3CC[C@@H]1[C@H](O)C(=O)N2CC3` reads above 100 µM.
As for `COC(=O)CNC(=O)C(Cc1ccccc1)NC(=O)C(CCSC)NC(=O)C(Cc1ccc(O)cc1)NC(=O)OC(C)(C)C` (stereo unspecified) (Boc-YMFG-OMe; configuration not given here), the TGI is above 100 µM.
The same measure, in the same setting: the result for `O=C1CCC[C@@H]2NC[C@@H](c3ccc4c(c3)OCO4)[C@H]12` reads above 25 µM.
With `Cc1ccc([C@@H]2[C@@H](C(=O)c3ccccn3)[C@H](c3ccc(C)cc3)C[C@](O)(c3ccccn3)[C@H]2C(=O)c2ccccn2)cc1`, the total growth inhibition concentration (TGI) was above 100 µM.
The same measure, in the same setting: the value for `COc1cc(/C=C2/C(=O)N(C(=O)c3ccccc3O)N=C2C)cc(OC)c1OC` was above 100 µM; that for `CCCc1cc(=O)c2c(C)c3[nH]c4ccc(Cl)cc4c3c(C)c2[nH]1` was 3.88 µM.
Same read-out and setting: the value for `CC(CN1c2ccccc2Sc2ccccc21)N(C)C` (stereo unspecified) was 41.6 µM.
`Cc1nnc(Nc2ccccc2)o1` registered a concentration for total growth inhibition (TGI) above 100 µM.

The subject of another assay is TK-10 renal. As to the kind of experiment: DTP human tumour cell line panel, 48 h.
As for `COc1ccc(C2CC(c3c(O)ccc4ccccc34)=NN2c2ccc([N+](=O)[O-])cc2[N+](=O)[O-])cc1OC` (stereo unspecified), the TGI was above 100 µM.
For `CN1C(=O)C2C(=O)N(Cc3ccccc3)CC(=O)N2c2cccnc21` (stereo unspecified), the TGI was above 100 µM.
The same measure, in the same setting: the result for `O=C(O)CSc1nnc(COc2ccc(Cl)cc2)n1-c1ccccc1` reads above 100 µM; that for `CN(C)CCCOc1nc2c(c(=O)n(C)c(=O)n2C)n1C` (tested in a mixture with another compound), 42.1 µM.
Compound `C[N+]1=C2[B-](C(C)(C)C)=[N+](C(C)(C)C)[B-]2(C(C)(C)C)[N+](C)=C2[B-](C(C)(C)C)=[N+](C(C)(C)C)[B-]21C(C)(C)C` (stereo unspecified) showed a TGI above 100 µM.
`Brc1ccc(CCNCCN2CCCCC2)cc1`: the TGI came out at 28.8 µM.
As for `Cc1ccc(C(=O)Nc2ccc(CP(=O)(O)O)cc2CP(=O)(O)O)cc1NC(=O)c1cccc(N)c1`, the TGI was above 100 µM.
Consider `OC1C2[C@@H](O)CCCN2C[C@@H](O)[C@H]1O` (stereo partly specified), for which the TGI is above 100 µM.
On the same count and under the same terms, the value for `CC[C@]1(Cc2ccc(OC)c(OC)c2)CN(S(=O)(=O)c2ccc(C)cc2)C[C@@H]1OC(C)=O` was above 100 µM; that for `Cc1c(F)c(N)c2c(=O)cc(-c3ccc(NC(=O)CN(C)C)c(F)c3)oc2c1F` was above 100 µM; that for `O=C(CC(=O)n1nc(-c2ccccc2)c(N=Nc2ccccc2C(=O)O)c1-c1ccccc1)Nc1ccc(Cl)cc1` was above 100 µM.
Same read-out and setting: the result for `C=C(C)C12CC(COC(=O)c3ccccc3)C34OC5(OC1C3C1OC1(CO)C(O)C1(O)C(OC(=O)c3ccccc3)C(C)C(C(C)CCCCCCC5O)C14)O2` (stereo unspecified) reads 81.2 µM; that for `C[C@@]12[C@H]3CC[C@@H]1[C@H](O)C(=O)N2CC3`, above 100 µM; that for `COC(=O)CNC(=O)C(Cc1ccccc1)NC(=O)C(CCSC)NC(=O)C(Cc1ccc(O)cc1)NC(=O)OC(C)(C)C` (stereo unspecified) (Boc-YMFG-OMe; configuration not given here), above 100 µM.
On the same count and under the same terms, the result for `O=C1CCC[C@@H]2NC[C@@H](c3ccc4c(c3)OCO4)[C@H]12` reads above 25 µM; that for `Cc1ccc([C@@H]2[C@@H](C(=O)c3ccccn3)[C@H](c3ccc(C)cc3)C[C@](O)(c3ccccn3)[C@H]2C(=O)c2ccccn2)cc1`, above 100 µM.
As for `COc1cc(/C=C2/C(=O)N(C(=O)c3ccccc3O)N=C2C)cc(OC)c1OC`, the TGI is above 100 µM.
Regarding `CCCc1cc(=O)c2c(C)c3[nH]c4ccc(Cl)cc4c3c(C)c2[nH]1`, the TGI worked out at 4.06 µM.
`Cc1nnc(Nc2ccccc2)o1`: the TGI is above 100 µM.

These data come from PubChem BioAssay (NCI).
